Experimental data reported in publication PMC6928678, “Simplified Head-to-Tail Cyclic Polypeptides as Biomaterial-Associated Antimicrobials with Endotoxin Neutralizing and Anti-Inflammatory Capabilities” (International Journal of Molecular Sciences, 2019).
Converted amounts (≈) assume the structure as drawn. Read-outs that look alike come from different tables or passages of the source. Where a SMILES comes first, the peptide text is derived from it.

Experiments:
[1] = RP-HPLC used as measure of hydrophobicity; 4.6 mm × 250 mm Venusil MP C18-5 column, 220 nm, linear acetonitrile gradient 15% to 45% in 30 min, 0.1% trifluoroacetic acid, 1 mL/min
Source text: In this experiment, cyclic, linear and D-proline antimicrobial peptides were designed based on the IR-rich template sequence (IR)nP(IR)nP (n = 1, 2 and 3). […] The […] molecular weights of the peptides were identified using mass spectrometry. […] The hydrophobicity of the peptides in solution is dependably mirrored by the HPLC retention times.

E. coli 25922 = assay: microbe, parasite or virus in culture; type: cell-based, Escherichia coli
Method: (§1) The test strains, including Gram-negative E. coli ATCC25922, E. coli ATCC 1005, S. typhimurium C7731, P. aeruginosa ATCC 27853, S. Typhimurium 14028, Gram-positive S. aureus ATCC29213, S. aureus ATCC 25923, S. epidermidis ATCC 12228 and S. aureus 43300, were obtained from the School of Veterinary Medicine, Northeast Agricultural University (Harbin, China).
(§2) Briefly, the bacteria were incubated overnight at 37 °C with constant shaking at 220 rpm, then were transferred to new MH broth (MHB) medium until they reached the logarithmic phase of growth. The bacteria were then diluted to 10^5 (CFU)/mL in MHB. The peptides were dissolved and diluted in 0.01% acetic acid and 0.2% bovine serum albumin (BSA) at various concentrations (0.5–128 μM) in each well of sterile 96-well plates and incubated for 20 h at 37 °C. […] The test was repeated three times.

E. coli UB 1005 = assay: microbe, parasite or virus in culture; type: cell-based, Escherichia coli
Method: as §1, §2

S. aureus 25923 = assay: microbe, parasite or virus in culture; type: cell-based, Staphylococcus aureus
Method: as §1, §2

S. aureus 29213 = assay: microbe, parasite or virus in culture; type: cell-based, Staphylococcus aureus
Method: as §1, §2

MRSA43300 = assay: microbe, parasite or virus in culture; type: cell-based, Methicillin-resistant Staphylococcus aureus
Method: as §1, §2

P. aeruginosa 27853 = assay: microbe, parasite or virus in culture; type: cell-based; details: read-out: MIC
Method: as §1, §2

S. epidermidis 12228 = assay: microbe, parasite or virus in culture; type: cell-based
Method: as §1, §2

S. typhimurium 14028 = assay: microbe, parasite or virus in culture; type: cell-based
Method: as §1, §2

S. typhimurium 7731 = assay: microbe, parasite or virus in culture; type: cell-based
Method: as §1, §2

[2] = test system: gram-negative strains tested; assay: Geometric mean of MICs, gram-negative strains; type: cell-based; details: 5 gram-negative strains; >128 apparently counted as 256; read-out: nGM (–), geometric mean of the MICs against gram-negative strains
Method: as §2

[3] = test system: gram-positive strains tested; assay: organism not typed; type: cell-based; details: for pGM (+), geometric mean of the MICs against gram-positive strains: 20 h
Method: as §2

[4] = test system: all the 9 bacteria tested; assay: Geometric mean of MICs, all 9 bacteria; type: cell-based; details: for tGM, geometric mean of the MICs against all the 9 bacteria: all 9 bacteria tested
Method: as §2

[5] = test system: human red blood cells (hRBCs); assay: Hemolysis assay; type: cell-based
Method: Figure 2 (A) Hemolytic activity of the engineered peptides against human red blood cells (hRBCs). The hRBCs were incubated with equal amounts of the respective peptides dissolved in PBS for 1 h at 37 °C. (B) Cytotoxicity of the engineered peptides against RAW264.7. […] Data shown are three independent experiments.
The hemolytic activity of the peptides is determined by measuring the amount of hemoglobin released during the lysis of human erythrocytes at different concentrations of AMPs. Briefly, fresh, healthy human red blood cells (hRBCs) were collected and then washed three times with phosphate-buffered saline (PBS) buffer (pH 7.2) and centrifuged at 1000× g for 5 min. Each 50 µL sample of hRBCs was incubated with 50 µL of the respective peptide dissolved in PBS in a well of a 96-well plate for 1 h at 37 °C. After incubation, the samples were centrifuged at 1000× g for 5 min and the supernatants (50 μL) were transferred to a new 96-well microplate. The release of hemoglobin was measured by monitoring the OD at 570 nm (Tecan, Salzburg, Austria). Negative (hRBCs without AMP treatment) and positive (hRBCs treated with 0.1% TritonX-100) controls were used. The concentration of peptide that caused 5% hemolysis was considered the minimal hemolysis concentration (MHC). The test was repeated three times. The percent hemolysis was calculated using the following formula:(2) Percent hemolysis=A−A0/At−A0× 100% A0 and At represent 0% and 100% hemolysis as measured in 10 mM PBS and 0.2% Triton X-100, respectively.

[6] = test system: bacteria versus human red blood cell; assay: Selectivity index (MHC5/GM); details: 256 μM used for MHC5 when no hemolysis at 128 μM
Method: To investigate the cell selectivity of novel antimicrobials, the total selectivity index (TSI) was calculated as the ratio of the minimal hemolysis concentration (MHC) to the geometric mean (GM) of the MIC values (Table 2).

[7] = test system: Gram-positive and Gram-negative bacteria; assay: Antimicrobial assay (MIC), statement over all strains; type: cell-based; details: all strains tested
Method: as §2

Structure (SMILES) | RT (retention time) [1] [min] | MIC (E. coli 25922; 25922, 20 h) [µM] | MIC (E. coli UB 1005; UB 1005, 20 h) [µM] | MIC (S. aureus 25923; 25923, 20 h) [µM] | MIC (S. aureus 29213; 29213, 20 h) [µM] | MIC (MRSA43300; 20 h) [µM] | MIC (P. aeruginosa 27853; 27853, 20 h) [µM] | MIC (S. epidermidis 12228; 12228, 20 h) [µM] | MIC (S. typhimurium 14028; 14028, 20 h) [µM] | MIC (S. typhimurium 7731; 7731, 20 h) [µM] | MIC [2] [µM] | pGM (+), geometric mean of the MICs against gram-positive strains [3] [µM] | tGM, geometric mean of the MICs against all the 9 bacteria [4] [µM] | MHC5, minimum hemolytic concentration that induced ≥5% hemolysis ([5]; red cells of human, 1 h) [µM] | also measured
CC[C@H](C)[C@@H]1NC(=O)[C@H](CCCNC(=N)N)NC(=O)[C@H]([C@@H](C)CC)NC(=O)[C@@H]2CCCN2C(=O)[C@H](CCCNC(=N)N)NC(=O)[C@H]([C@@H](C)CC)NC(=O)[C@H](CCCNC(=N)N)NC(=O)[C@H]([C@@H](C)CC)NC(=O)[C@@H]2CCCN2C(=O)[C@H](CCCNC(=N)N)NC1=O [OIR2] (cyclo(IRIRPIRIRP)) | 10.66 | 64 (≈ 81.4 µg/mL) | 64 (≈ 81.4 µg/mL) | >128 | >128 | >128 | >128 | >128 | >128 | >128 | 147.0 (≈ 187 µg/mL) | 256 | 188.1 | >128 | –
CC1(C)S[C@@H]2[C@H](NC(=O)Cc3ccccc3)C(=O)N2[C@H]1C(=O)O [PS, Penicillin Sodium, reference compound] | – | – | – | – | – | – | – | – | – | – | 24.3 | – | – | – | MIC (E. coli 25922; Escherichia coli, E. coli 25922, MHB, 10^5 CFU/mL, 0.5–128 μM peptide, 20 h 37 °C, OD 492 nm, repeated three times): 128 µM; MIC (E. coli UB 1005; Escherichia coli, UB1005, E. coli UB 1005, MHB, 10^5 CFU/mL, 20 h 37 °C, repeated three times): 64 µM; MIC (S. aureus 25923; Staphylococcus aureus, S. aureus 25923, MHB, 10^5 CFU/mL, 20 h 37 °C, repeated three times): 32 µM; MIC (S. aureus 29213; Staphylococcus aureus, S. aureus 29213, MHB, 10^5 CFU/mL, 20 h 37 °C, repeated three times): 64 µM; MIC (MRSA43300; Staphylococcus aureus, MRSA43300, MHB, 10^5 CFU/mL, 20 h 37 °C, repeated three times): 32 µM; MIC (P. aeruginosa 27853; Pseudomonas aeruginosa, P. aeruginosa 27853, MHB, 10^5 CFU/mL, 20 h 37 °C, repeated three times): 128 µM; MIC (S. epidermidis 12228; Staphylococcus epidermidis, S. epidermidis 12228, MHB, 10^5 CFU/mL, 20 h 37 °C, repeated three times): 0.5 µM; MIC (S. typhimurium 14028; Salmonella enterica, S. typhimurium 14028, MHB, 10^5 CFU/mL, 20 h 37 °C, repeated three times): 16 µM; MIC (S. typhimurium 7731; Salmonella enterica, S. typhimurium 7731, MHB, 10^5 CFU/mL, 20 h 37 °C, repeated three times): 0.5 µM; MIC ([3]; 4 gram-positive strains, >128 apparently counted as 256, read-out: pGM (+), geometric mean of the MICs against gram-positive strains): 13.5 µM; GM MIC (range of Gram-negative and Gram-positive geometric means) ([4]; Table 2): 13.5 to 24.3 µM; MIC ([4]; read-out: tGM, geometric mean of the MICs against all the 9 bacteria): 18.7 µM; MHC5, minimum hemolytic concentration that induced ≥5% hemolysis ([5]; human red blood cells, PBS, 1 h at 37 °C, OD 570 nm, repeated three times): >128 µM; nSI (–), selectivity index MHC5/GM (−) [6]: 10.5; pSI (+), selectivity index MHC5/GM(+) [6]: 19.0; tSI, total selectivity index MHC5/TGM [6]: 13.7
CC[C@H](C)[C@@H]1NC(=O)[C@@H]2CCCN2C(=O)[C@H](CCCNC(=N)N)NC(=O)[C@H]([C@@H](C)CC)NC(=O)[C@@H]2CCCN2C(=O)[C@H](CCCNC(=N)N)NC1=O [OIR1] (cyclo(IRPIRP)) | 10.32 | >128 | >128 | >128 | >128 | >128 | >128 | >128 | >128 | >128 | 256 (≈ 188 µg/mL) | 256 | 256 | >128 | MIC in the presence of Gram-positive and Gram-negative bacteria [7]: greater than 128 μM
